# Results taken from PMC3731299, “Isoniazid Inhibits the Heme-Based Reactivity of Mycobacterium tuberculosis Truncated Hemoglobin N” (PLoS ONE, 2013).
# Where two headings read alike, the source gives them in different places. Marks after values point to notes of the source that are not given here.
# Assays:
# [1] = target: T1, Mt-trHbN(II) (Mycobacterium tuberculosis, UniProt P9WN25); assay type: binding
# T1 construct: made in house
# [2] = system: Sperm whale Mb(II); parameters: method as in PMID 3733708; details: pH 7.0, 20.0°C; cited from earlier work
# [3] = target: Sperm whale Mb(II); parameters: method as in ref 58 = [58]; 58 Antonini E, Brunori M (1971) Hemoglobin and myoglobin in their reactions with ligands. Amsterdam, London: North Holland Publishing Co.; details: read-out: B for O2 binding to sperm whale Mb(II); pH 7.0, 20.0°C; cited from earlier work
# [4] = target: T1, Mt-trHbN(II); assay: O2 binding to Mt-trHbN(II) in the absence and presence of isoniazid (tonometer method)
# Method: The value of B was determined by the tonometer method adding small volumes of air to the Mt-trHbN(II) solution (1.3×10^−6 M), in the absence and presence of isoniazid ( = 1.0×10^−2 M; B ^obs).
SMILES,amplitude (1 – a) of the CO binding process (slow phase) [1],amplitude a of the CO binding process [1],"amplitude a of the CO binding process (isoniazid-free fraction, fast phase) [1]","f obs, pseudo-first order rate constant for CO binding [1] [s⁻¹]","f obs, pseudo-first order rate constant for CO binding (fast phase) [1] [s⁻¹]","f obsi, pseudo-first order rate constant for CO binding in the presence of isoniazid (slow phase) [1] [s⁻¹]",second-order association rate constant f on for CO binding to Mt-trHbN(II) ([1]; pH 7),f off for CO binding to sperm whale Mb(II) [2],f on for CO binding to sperm whale Mb(II) [2],Kd [3] [nM],"Kd ([4]; [isoniazid] = 1.0×10^−2 M, from B and D, read-out: B obs calculated according to Equation 16) [nM]","P 50 for O2 binding to Mt-trHbN(II) in the presence of isoniazid ([4]; [isoniazid] = 1.0×10^−2 M, corresponds to B obs)","P 50 for O2 binding to Mt-trHbN(II) ([4]; absence of isoniazid, corresponds to B)","Kd ([4]; read-out: dissociation equilibrium constant B for O2 binding to Mt-trHbN(II), absence of isoniazid, pH 7.0, 20.0°C, Equation 15) [nM]"
[C-]#[O+] [CO],0.62,1,0.38,170,170,1.5,f on = (3.8±0.5)×10^6 M^−1 s^−1,f off = 1.9×10^−2 s^−1h,f on = 5.1×10^5 M^−1 s^−1 ^h,–,–,–,–,–
O=O [O2],–,–,–,–,–,–,–,–,–,520,410,(2.3±0.3)×10^−1 mm Hg,(2.4±0.4)×10^−2 mm Hg,44
